Data: patent US10238670B2, “9-aminomethyl minocycline compounds and methods of use thereof in urinary tract infection (UTI) treatment” (Paratek Pharmaceuticals, Inc., priority 2016, dated 2019)
Values after ≈ are worked out from the molar mass of the structure shown. Where two headings read alike, the source gives them in different places.

Tests used:
Test in all cases: In vitro MIC, 2010 surveillance isolates
E. faecalis VNS = format: cell-based
MRSA = format: cell-based
E. faecium VNS = format: cell-based
E. faecalis VS = format: cell-based
E. coli ESBL+ = format: cell-based, Escherichia coli
MSSA = format: cell-based
A. baumanii = format: cell-based
E. coli ESBL− = format: cell-based, Escherichia coli
Enterobacter spp = format: cell-based
MR CoNS = format: cell-based, Coagulase-Negative Staphylococcus
K. oxytoca = format: cell-based
E. faecium VS = format: cell-based
MS CoNS = format: cell-based, Coagulase-Negative Staphylococcus
E. cloacae CeftazR = format: cell-based
K. pneumoniae ESBL+ = format: cell-based, Klebsiella pneumoniae
Acinetobacter spp = format: cell-based; details: for % R (resistance): CLSI breakpoints
E. cloacae CeftazS = format: cell-based
K. pneumoniae ESBL− = format: cell-based, Klebsiella pneumoniae

range of MICs (N <10, shown instead of MIC90) (E. faecalis VNS; Asia/Pac, N=1): >8 | range of MICs (N <10, shown instead of MIC90) (E. faecalis VNS; Europe, N=8): >8 | range of MICs (N <10, shown instead of MIC90) (E. faecalis VNS; L. Amer, N=7): >8 | MIC90 (E. faecalis VNS; N America, N=38): > 8 µg/mL | MIC90 (MRSA; Asia/Pac, N=428): > 8 µg/mL | MIC90 (MRSA; Europe, N=750): > 8 µg/mL | MIC90 (MRSA; L. Amer, N=506): > 8 µg/mL | MIC90 (MRSA; N America, N=2508): > 8 µg/mL | MIC90 (E. faecium VNS; Asia/Pac, N=24): > 8 µg/mL | MIC90 (E. faecium VNS; Europe, N=71): > 8 µg/mL | MIC90 (E. faecium VNS; L. Amer, N=41): > 8 µg/mL | MIC90 (E. faecium VNS; N America, N=478): > 8 µg/mL | MIC90 (E. faecalis VS; Asia/Pac, N=214): > 8 µg/mL | MIC90 (E. faecalis VS; Europe, N=669): > 8 µg/mL | MIC90 (E. faecalis VS; L. Amer, N=290): > 8 µg/mL | MIC90 (E. faecalis VS; N America, N=863): > 8 µg/mL | MIC90 (E. coli ESBL+; Asia/Pac, N=219): > 8 µg/mL | MIC90 (E. coli ESBL+; Escherichia coli, ESBL-producing E. coli, read-out: MIC90): > 8 µg/mL | MIC90 (E. coli ESBL+; Europe, N=274): > 8 µg/mL | MIC90 (E. coli ESBL+; L. Amer, N=168): > 8 µg/mL | MIC90 (E. coli ESBL+; N America, N=134): > 8 µg/mL | MIC90 (MSSA; Asia/Pac, N=641): 4 µg/mL (≈ 7.21 µM) | MIC90 (MSSA; Europe, N=2109): 4 µg/mL (≈ 7.21 µM) | MIC90 (MSSA; L. Amer, N=590): 4 µg/mL (≈ 7.21 µM) | MIC90 (MSSA; N America, N=2373): 4 µg/mL (≈ 7.21 µM) | MIC90 (A. baumanii; Asia/Pac, N=275): > 8 µg/mL | MIC90 (A. baumanii; Europe, N=145): > 8 µg/mL | MIC90 (A. baumanii; L. Amer, N=275): > 8 µg/mL | MIC90 (A. baumanii; N America, N=154): > 8 µg/mL | MIC90 (E. coli ESBL−; Asia/Pac, N=282): 0.12 µg/mL (≈ 0.216 µM) | MIC90 (E. coli ESBL−; Europe, N=1533): 0.12 µg/mL (≈ 0.216 µM) | MIC90 (E. coli ESBL−; L. Amer, N=389): 0.12 µg/mL (≈ 0.216 µM) | MIC90 (E. coli ESBL−; N America, N=1172): 0.12 µg/mL (≈ 0.216 µM) | MIC90 (Enterobacter spp; Asia/Pac, N=52): > 8 µg/mL | MIC90 (Enterobacter spp; Europe, N=82): > 8 µg/mL | MIC90 (Enterobacter spp; L. Amer, N=42): > 8 µg/mL | MIC90 (Enterobacter spp; N America, N=101): > 8 µg/mL | MIC90 (MR CoNS; Asia/Pac, N=77): > 8 µg/mL | MIC90 (MR CoNS; Europe, N=510): > 8 µg/mL | MIC90 (MR CoNS; L. Amer, N=301): > 8 µg/mL | MIC90 (MR CoNS; N America, N=461): > 8 µg/mL | MIC90 (K. oxytoca; Asia/Pac, N=17): > 8 µg/mL | MIC90 (K. oxytoca; Europe, N=158): > 8 µg/mL | MIC90 (K. oxytoca; L. Amer, N=25): > 8 µg/mL | MIC90 (K. oxytoca; N America, N=177): 4 µg/mL (≈ 7.21 µM) | MIC90 (E. faecium VS; Asia/Pac, N=106): > 8 µg/mL | MIC90 (E. faecium VS; Europe, N=303): > 8 µg/mL | MIC90 (E. faecium VS; L. Amer, N=51): > 8 µg/mL | MIC90 (E. faecium VS; N America, N=115): > 8 µg/mL | MIC90 (MS CoNS; Asia/Pac, N=18): 8 µg/mL (≈ 14.4 µM) | MIC90 (MS CoNS; Europe, N=185): 4 µg/mL (≈ 7.21 µM) | MIC90 (MS CoNS; L. Amer, N=67): 4 µg/mL (≈ 7.21 µM) | MIC90 (MS CoNS; N America, N=191): 4 µg/mL (≈ 7.21 µM) | MIC90 (E. cloacae CeftazR; Asia/Pac, N=63): > 8 µg/mL | MIC90 (E. cloacae CeftazR; Europe, N=72): > 8 µg/mL | MIC90 (E. cloacae CeftazR; L. Amer, N=42): > 8 µg/mL | MIC90 (E. cloacae CeftazR; N America, N=77): > 8 µg/mL | MIC90 (K. pneumoniae ESBL+; Asia/Pac, N=124): > 8 µg/mL | MIC90 (K. pneumoniae ESBL+; Europe, N=151): > 8 µg/mL | MIC90 (K. pneumoniae ESBL+; L. Amer, N=209): > 8 µg/mL | MIC90 (K. pneumoniae ESBL+; N America, N=108): > 8 µg/mL | MIC90 (Acinetobacter spp; Europe, N=43): > 8 µg/mL | MIC90 (Acinetobacter spp; N America, N=42): > 8 µg/mL | MIC90 (E. cloacae CeftazS; Asia/Pac, N=100): 2 µg/mL (≈ 3.61 µM) | MIC90 (E. cloacae CeftazS; Europe, N=183): 2 µg/mL (≈ 3.61 µM) | MIC90 (E. cloacae CeftazS; L. Amer, N=57): > 8 µg/mL | MIC90 (E. cloacae CeftazS; N America, N=210): 1 µg/mL (≈ 1.8 µM) | MIC90 (K. pneumoniae ESBL−; Asia/Pac, N=189): 0.12 µg/mL (≈ 0.216 µM) | MIC90 (K. pneumoniae ESBL−; Europe, N=361): 0.12 µg/mL (≈ 0.216 µM) | MIC90 (K. pneumoniae ESBL−; L. Amer, N=160): 0.12 µg/mL (≈ 0.216 µM) | MIC90 (K. pneumoniae ESBL−; N America, N=671): 0.12 µg/mL (≈ 0.216 µM)
SMILES: CO/N=C(\C(=O)N[C@@H]1C(=O)N2C(C(=O)O)=C(CSc3nc(=O)c(=O)[nH]n3C)CS[C@H]12)c1csc(N)n1 [Ceftriaxone]
% R (resistance) (MRSA; Asia/Pac, Eucast breakpoints): 100% | % R (resistance) (MRSA; Europe, Eucast breakpoints): 100% | % R (resistance) (MRSA; L. Amer, CLSI breakpoints): 100% | % R (resistance) (MRSA; N America, CLSI breakpoints): 100% | % R (resistance) (E. coli ESBL+; Asia/Pac, Eucast breakpoints): 99.5% | resistance rates for ESBL-producing clinical isolates (E. coli ESBL+; E. coli): 95% | % R (resistance) (E. coli ESBL+; Europe, Eucast breakpoints): 94.2% | % R (resistance) (E. coli ESBL+; L. Amer, CLSI breakpoints): 97.6% | % R (resistance) (E. coli ESBL+; N America, CLSI breakpoints): 85.8% | % R (resistance) (MSSA; Asia/Pac, Eucast breakpoints): 0% | % R (resistance) (MSSA; Europe, Eucast breakpoints): 0% | % R (resistance) (MSSA; L. Amer, CLSI breakpoints): 0% | % R (resistance) (MSSA; N America, CLSI breakpoints): 0.1% | % R (resistance) (E. coli ESBL−; Asia/Pac, Eucast breakpoints): 0% | % R (resistance) (E. coli ESBL−; Europe, Eucast breakpoints): 0% | % R (resistance) (E. coli ESBL−; L. Amer, CLSI breakpoints): 0% | % R (resistance) (E. coli ESBL−; N America, CLSI breakpoints): 0% | % R (resistance) (Enterobacter spp; Asia/Pac, Eucast breakpoints): 30.8% | % R (resistance) (Enterobacter spp; Europe, Eucast breakpoints): 39% | % R (resistance) (Enterobacter spp; L. Amer, CLSI breakpoints): 31% | % R (resistance) (Enterobacter spp; N America, CLSI breakpoints): 24.8% | % R (resistance) (MR CoNS; Asia/Pac, Eucast breakpoints): 100% | % R (resistance) (MR CoNS; Europe, Eucast breakpoints): 100% | % R (resistance) (MR CoNS; L. Amer, CLSI breakpoints): 100% | % R (resistance) (MR CoNS; N America, CLSI breakpoints): 100% | % R (resistance) (K. oxytoca; Asia/Pac, Eucast breakpoints): 29.4% | % R (resistance) (K. oxytoca; Europe, Eucast breakpoints): 17.7% | % R (resistance) (K. oxytoca; L. Amer, CLSI breakpoints): 40% | % R (resistance) (K. oxytoca; N America, CLSI breakpoints): 10.2% | % R (resistance) (MS CoNS; Asia/Pac, Eucast breakpoints): 0% | % R (resistance) (MS CoNS; Europe, Eucast breakpoints): 0% | % R (resistance) (MS CoNS; L. Amer, CLSI breakpoints): 0% | % R (resistance) (MS CoNS; N America, CLSI breakpoints): 0% | % R (resistance) (E. cloacae CeftazR; Asia/Pac, Eucast breakpoints): 100% | % R (resistance) (E. cloacae CeftazR; Europe, Eucast breakpoints): 100% | % R (resistance) (E. cloacae CeftazR; L. Amer, CLSI breakpoints): 100% | % R (resistance) (E. cloacae CeftazR; N America, CLSI breakpoints): 100% | % R (resistance) (K. pneumoniae ESBL+; Asia/Pac, Eucast breakpoints): 93.5% | % R (resistance) (K. pneumoniae ESBL+; Europe, Eucast breakpoints): 94.7% | % R (resistance) (K. pneumoniae ESBL+; L. Amer, CLSI breakpoints): 99.5% | % R (resistance) (K. pneumoniae ESBL+; N America, CLSI breakpoints): 95.4% | % R (resistance) (Acinetobacter spp; L. Amer): 0% | % R (resistance) (Acinetobacter spp; N America): 0% | % R (resistance) (E. cloacae CeftazS; Asia/Pac, Eucast breakpoints): 5% | % R (resistance) (E. cloacae CeftazS; Europe, Eucast breakpoints): 7.7% | % R (resistance) (E. cloacae CeftazS; L. Amer, CLSI breakpoints): 24.6% | % R (resistance) (E. cloacae CeftazS; N America, CLSI breakpoints): 3.3% | % R (resistance) (K. pneumoniae ESBL−; Asia/Pac, Eucast breakpoints): 0% | % R (resistance) (K. pneumoniae ESBL−; Europe, Eucast breakpoints): 0% | % R (resistance) (K. pneumoniae ESBL−; L. Amer, CLSI breakpoints): 0% | % R (resistance) (K. pneumoniae ESBL−; N America, CLSI breakpoints): 0%
